According to patent publication US7078414B2, “Derivatives of 3-guanidinocarbonyl-1-heteroaryl-pyrrole, preparation process and intermediates of this process, their use as medicaments, and pharmaceutical compositions comprising them” (Sanofi-Aventis Deutschland GmbH, priority 2002, dated 2006):
Counter-ions that a name gives are not always drawn.

Legend:
[1] = target: T1, NHE-1 subtype (Homo sapiens, UniProt P19634); experiment: NHE inhibition FLIPR test (intracellular pH recovery, BCECF) in transfected LAP-1 cell lines expressing NHE subtypes; type: cell-based; settings: transfected LAP-1 cells expressing NHE-1 subtype, read-out: IC50 (NHE1)
T1 construct: expressed in transfected cells; host or cells: LAP-1 cells (parental line has no endogenous NHE activity), stably transfected and kept under G418 selection
Experimental: The NHE inhibitory activities (IC50 values) of the compounds according to the invention were determined by a FLIPR test.
The test is performed in the FLIPR (Fluorescent Imaging Plate Reader) equipped with clear-bottomed and black-walled 96-well microtitration plates.
The growth medium for the transfected cells (Iscove +10% foetal calf serum) also comprises G418 as selection antibiotic to ensure the presence of transfected sequences.
The actual test begins by eliminating the growth medium and adding 100 μl of loading buffer per well (5 μM of BCECF-AM [2′,7′-bis(2-carboxyethyl)-5-(6)-carboxyfluoresceine acetoxymethyl ester] in 20 mM of NH4Cl, 115 mM of choline chloride, 1 mM of CaCl2, 5 mM of KCl, 20 mM of HEPES and 5 mM of glucose; pH 7.4 (adjusted with KOH). The cells are then incubated for 20 minutes at 37° C. This incubation results in the loading of the fluorescent dye into the cells, the fluorescence intensity of which depends on the pHi, and on the NH4Cl, which results in a slight basification of the cells.
The precursor BCECF-AM, a non-fluorescent dye, is, as an ester, capable of crossing the membrane. The actual dye, which is incapable of crossing the membrane, is released inside the cell by esterases.
After this 20-minute incubation, the loading buffer, which comprises NH4Cl and free BCECF-AM, is removed by washing three times in the cell washing device (Tecan Columbus), each wash being performed with 400 μL of washing buffer (133.8 mM of choline chloride, 4.7 mM of KCl, 1.25 mM of MgCl2, 1.25 mM of CaCl2, 0.97 mM of K2HPO4, 0.23 mM of KH2PO4, 5 mM of HEPES and 5 mM of glucose; pH 7.4 (adjusted with KOH)). The residual volume remaining in the wells is 90 μL (possibly between 50 and 125 μL). This washing step removes the free BCECF-AM and results in an intracellular acidification (pHi of 6.3–6.4) due to the removal of the external ammonium ions.
As the equilibrium of the intracellular ammonium with the aqueous ammonia and the protons, by removal of the extracellular ammonium and by the subsequent immediate crossing of the aqueous ammonia across the cell membrane, is disrupted, the washing process results in intracellular protons remaining, which is the cause of the intracellular acidification. This acidification can result finally in the death of the cells if it lasts long enough. It is important here for the washing buffer to be free of sodium (<1 mM), otherwise the extracellular sodium ions would result in an immediate increase in the pHi on account of the activity of the cloned NHE isoforms. It is also important for all the buffers used (loading buffer, washing buffer and regeneration buffer) not to contain any HCO3-ions, otherwise the presence of bicarbonate would result in the activation of bicarbonate-dependent systems that disrupt the pHi regulation, which systems are contained in the LAP-1 parental cell line.
The microtiter plates containing acidified cells are then transferred (up to 20 minutes after the acidification) to the FLIPR. In the FLIPR, the intracellular fluorescent dye is activated with light of a wavelength of 488 nm, which is generated by an argon laser, and the measuring parameters (laser power, illumination time and diaphragm of the […] camera integrated into the FLIPR) are chosen such that the average value of the f fluorescent signal per well is between 30,000 and 35,000 relative fluorescence units.
The actual measurement in the FLIPR starts with a photograph being taken by the CCD camera every two seconds under software control. After 10 seconds, the increase in the intracellular pH is initiated by adding 90 μL of regeneration buffer (133.8 mM of NaCl, 4.7 mM of KCl, 1.25 mM of MgCl2, 1.25 mM of CaCl2, 0.97 mM of K2HPO4, 0.23 mM of KH2PO4, 10 mM of HEPES and 5 mM of glucose; pH 7.4 (adjusted with NaOH)) using a 96-well pipette device incorporated into the FLIPR.
Some wells, to which is added pure regeneration buffer, serve as positive controls (100% NHE activity). […]

T1 sequence (P19634 whole entry): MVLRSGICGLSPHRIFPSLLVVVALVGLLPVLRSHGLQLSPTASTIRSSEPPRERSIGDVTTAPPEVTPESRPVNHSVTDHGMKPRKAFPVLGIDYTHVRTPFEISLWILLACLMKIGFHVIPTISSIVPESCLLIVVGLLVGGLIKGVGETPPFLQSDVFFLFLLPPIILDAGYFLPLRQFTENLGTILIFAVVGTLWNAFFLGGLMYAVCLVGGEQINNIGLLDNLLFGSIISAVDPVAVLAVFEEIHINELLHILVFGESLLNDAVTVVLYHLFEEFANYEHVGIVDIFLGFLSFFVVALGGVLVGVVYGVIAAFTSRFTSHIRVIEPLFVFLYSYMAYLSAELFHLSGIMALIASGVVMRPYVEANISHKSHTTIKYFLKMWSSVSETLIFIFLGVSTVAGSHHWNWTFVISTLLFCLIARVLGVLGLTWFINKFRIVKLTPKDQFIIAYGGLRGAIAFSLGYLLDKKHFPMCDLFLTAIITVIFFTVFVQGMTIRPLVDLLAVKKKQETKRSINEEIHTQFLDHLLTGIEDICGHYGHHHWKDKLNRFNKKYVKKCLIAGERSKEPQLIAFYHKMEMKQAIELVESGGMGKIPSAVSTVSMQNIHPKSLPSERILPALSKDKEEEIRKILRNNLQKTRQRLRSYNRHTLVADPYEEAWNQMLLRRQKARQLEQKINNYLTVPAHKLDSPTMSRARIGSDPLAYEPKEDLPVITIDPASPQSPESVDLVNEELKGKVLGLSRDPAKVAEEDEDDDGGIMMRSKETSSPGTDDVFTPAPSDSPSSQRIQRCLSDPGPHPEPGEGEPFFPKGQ

SMILES | melting point [°C] | IC50 [1] [nM]
Cc1cn(-c2ccnc3c(F)cccc23)cc1C(=O)N=C(N)N [Example 22, N-[1-(8-Fluoro-quinolin-4-yl)-4-methyl-1H-pyrrole-3-carbonyl]-guanidine trifluoroacetate] |  | 0.2
Cl.N=C(N)NC(=O)c1cn(-c2ccnc3ccccc23)cc1C1CC1 [Example 12, 4-Cyclopropyl-3-guanidinocarbonyl-1-(quinolin-4-yl)-1H-pyrrole dihydrochloride] | 185 | 0.5
NC(N)=NC(=O)c1ccn(-c2cnnc3ccccc23)c1 [Example 24, N-(1-Cinnolin-4-yl-1H-pyrrole-3-carbonyl)-guanidine trifluoroacetate] |  | 222
Cc1cc(-n2cc(C)c(C(=O)N=C(N)N)c2)c2ccccc2n1 [Example 16, N-[4-Methyl-1-(2-methyl-quinolin-4-yl)-1H-pyrrole-3-carbonyl]-guanidine trifluoroacetate] |  | 3.1
Cc1c(C(=O)NC(=N)N)ccn1-c1ccc2ccccc2n1 (as salt: hydrochloride) [Example 4, 3-Guanidinocarbonyl-2-methyl-1-(quinol-2-yl)-1H-pyrrole hydrochloride] | 250 | 
NC(N)=NC(=O)c1ccn(-c2ccnc3c(F)cccc23)c1 [Example 23, N-[1-(8-Fluoro-quinolin-4-yl)-1H-pyrrole-3-carbonyl]-guanidinetrifluoroacetate] |  | 97.7
N=C(N)NC(=O)c1ccn(-c2cccc3cccnc23)c1 [Example 7, 3-Guanidinocarbonyl-1-(quinol-8-yl)-1H-pyrrole] | 155 | 90
Cc1cn(-c2cncnc2)cc1C(=O)NC(=N)N [Example 28, N-(4-Methyl-1-pyrimidin-5-yl-1H-pyrrole-3-carbonyl)-guanidine] |  | 192
Cc1cn(-c2ccnc3ccc(F)cc23)cc1C(=O)N=C(N)N [Example 20, N-[1-(6-Fluoro-quinolin-4-yl)-4-methyl-1H-pyrrole-3-carbonyl]-guanidine trifluoroacetate] |  | 0.8
Cc1cn(-c2nccc3ccccc23)cc1C(=O)NC(=N)N.Cl [Example 10, 3-Guanidinocarbonyl-1-(isoquinol-1-yl)4-methyl-1H-pyrrole hydrochloride] | 247 | 0.16
Cc1cn(-c2cccnc2)cc1C(=O)NC(=N)N [Example 27, N-(4-Methyl-1-pyridin-3-yl-1H-pyrrole-3-carbonyl)-guanidine] |  | 0.6
Cl.NC(N)=NC(=O)c1ccn(-c2ccc3ccccc3n2)c1 [Example 1, 3-Guanidinocarbonyl-1-(quinol-2-yl)-1H-pyrrole hydrochloride] | 258 | 49
NC(N)=NC(=O)c1ccn(-c2ccnc3ccccc23)c1 [Example 2, 3-Guanidinocarbonyl-1-(quinol-4-yl)-1H-pyrrole dihydrochloride] |  | 22
Cc1cn(-c2ccccn2)cc1C(=O)NC(=N)N [Example 26, N-(4-Methyl-1-pyridin-2-yl-1H-pyrrole-3-carbonyl)-guanidine] |  | 3.6
Cc1c(C(=O)NC(=N)N)ccn1-c1ccc2ccccc2n1 [Example 4, 3-Guanidinocarbonyl-2-methyl-1-(quinol-2-yl)-1H-pyrrole hydrochloride] |  | 96
NC(N)=NC(=O)c1ccn(-c2ccnc3cc(Cl)ccc23)c1 [Example 19, N-[1-(7-Chloro-quinolin-4-yl)-1H-pyrrole-3-carbonyl]-guanidinetrifluoracetate] |  | 42.9

More lines, now with the values ahead:

melting point [°C] | IC50 [1] [nM] | SMILES
240 |  | Cc1c(C(=O)N=C(N)N)ccn1-c1ccnc2ccccc12 (as salt: hydrochloride) [Example 3, 3-Guanidinocarbonyl-2-methyl-1-(quinol-4-yl)-1H-pyrrole dihydrochloride]
 | 29 | NC(N)=NC(=O)c1ccn(-c2ccnc3ccc(F)cc23)c1 [Example 21, N-[1-(6-Fluoro-quinolin-4-yl)-1H-pyrrole-3-carbonyl]-guanidinetrifluoroacetate]
 | 51 | NC(N)=NC(=O)c1ccn(-c2nccc3ccccc23)c1 [Example 5, 3-Guanidinocarbonyl-1-(isoquinol-1-yl)-1H-pyrrole hydrochloride]
 | 2.3 | N=C(N)NC(=O)c1cn(-c2ccnc3ccccc23)cc1C(F)(F)F [Example 14, 4-Trifluoromethyl-3-guanidinocarbonyl-1-(quinolin-4-yl)-1H-pyrrole]
279.5 | 17 | CC(=O)O.Cc1cn(-c2cnc3ccccc3c2)cc1C(=O)NC(=N)N [Example 30, N-(4-Methyl-1-quinolin-3-yl-1H-pyrrole-3-carbonyl)-guanidine hydrogenacetate]
215 | 0.25 | Cc1cn(-c2ccnc3ccccc23)cc1C(=O)NC(=N)N [Example 9, 3-Guanidinocarbonyl-4-methyl-1-(quinol-4-yl)-1H-pyrrole]
 | 2.6 | N=C(N)NC(=O)c1cn(-c2nccc3ccccc23)cc1C(F)(F)F [Example 15, 4-Trifluoromethyl-3-guanidinocarbonyl-1-(isoquinolin-1-yl)-1H-pyrrole hydrochloride]
244 |  | NC(N)=NC(=O)c1ccn(-c2ccnc3ccccc23)c1 (as salt: hydrochloride) [Example 2, 3-Guanidinocarbonyl-1-(quinol-4-yl)-1H-pyrrole dihydrochloride]
 | 1.6 | Cc1cn(-c2ccnc3cc(Cl)ccc23)cc1C(=O)N=C(N)N [Example 18, N-[1-(7-Chloro-quinolin-4-yl)-4-methyl-1H-pyrrole-3-carbonyl]-guanidine trifluoroacetate]
240 | 0.1 | Cc1cn(-c2cccc3ncccc23)cc1C(=O)NC(=N)N.Cl [Example 13, 3-Guanidinocarbonyl-4-methyl-1-(quinolin-5-yl)-1H-pyrrole hydrochloride]
208.5 |  | Cc1cn(-c2ncccn2)cc1C(=O)NC(=N)N [Example 25, N-(4-Methyl-1-pyrimidin-2-yl-1H-pyrrole-3-carbonyl)-guanidine]
 | 67 | Cc1c(C(=O)N=C(N)N)ccn1-c1ccnc2ccccc12 [Example 3, 3-Guanidinocarbonyl-2-methyl-1-(quinol-4-yl)-1H-pyrrole dihydrochloride]
264.4 | 4.3 | CC(=O)O.Cc1cn(-c2ccc3ccccc3n2)cc1C(=O)NC(=N)N [Example 29, N-(4-Methyl-1-quinolin-2-yl-1H-pyrrole-3-carbonyl)-guanidine hydrogenacetate]
260 | 44 | N=C(N)NC(=O)c1ccn(-c2cccc3ncccc23)c1 [Example 6, 3-Guanidinocarbonyl-1-(quinol-5-yl)-1H-pyrrole]
 | 10.7 | Cc1cc(-n2ccc(C(=O)N=C(N)N)c2)c2ccccc2n1 [Example 17, N-[1-(2-Methyl-quinolin-4-yl)-1H-pyrrole-3-carbonyl]-guanidinetrifluoroacetate]
 | 121 | N=C(N)NC(=O)c1ccn(-c2cncc3ccccc23)c1 [Example 8, 3-Guanidinocarbonyl-1-(isoquinol-4-yl)-1H-pyrrole]
 | 19 | Cc1c(C(=O)NC(=N)N)cn(-c2ccnc3ccccc23)c1C [Example 11, 3-Guanidinocarbonyl-4,5-dimethyl-1-(quinol-4-yl)-1H-pyrrole dihydrochloride]
